Experimental data reported in patent US11427548B2 (Arvinas Operations, Inc., priority 2015, dated 2022).
Where two headings read alike, the source gives them in different places.

Assays:
Format in all cases: cell-based
Androgen Receptor [1] = target: T1, Androgen Receptor (Homo sapiens, UniProt P10275); experiment: Androgen Receptor ELISA assay (PathScan AR ELISA) in VCaP cells: AR degradation, Dmax and DC50
T1 construct: endogenous in cells; host or cells: VCaP cells
T1 sequence (P10275 1-920): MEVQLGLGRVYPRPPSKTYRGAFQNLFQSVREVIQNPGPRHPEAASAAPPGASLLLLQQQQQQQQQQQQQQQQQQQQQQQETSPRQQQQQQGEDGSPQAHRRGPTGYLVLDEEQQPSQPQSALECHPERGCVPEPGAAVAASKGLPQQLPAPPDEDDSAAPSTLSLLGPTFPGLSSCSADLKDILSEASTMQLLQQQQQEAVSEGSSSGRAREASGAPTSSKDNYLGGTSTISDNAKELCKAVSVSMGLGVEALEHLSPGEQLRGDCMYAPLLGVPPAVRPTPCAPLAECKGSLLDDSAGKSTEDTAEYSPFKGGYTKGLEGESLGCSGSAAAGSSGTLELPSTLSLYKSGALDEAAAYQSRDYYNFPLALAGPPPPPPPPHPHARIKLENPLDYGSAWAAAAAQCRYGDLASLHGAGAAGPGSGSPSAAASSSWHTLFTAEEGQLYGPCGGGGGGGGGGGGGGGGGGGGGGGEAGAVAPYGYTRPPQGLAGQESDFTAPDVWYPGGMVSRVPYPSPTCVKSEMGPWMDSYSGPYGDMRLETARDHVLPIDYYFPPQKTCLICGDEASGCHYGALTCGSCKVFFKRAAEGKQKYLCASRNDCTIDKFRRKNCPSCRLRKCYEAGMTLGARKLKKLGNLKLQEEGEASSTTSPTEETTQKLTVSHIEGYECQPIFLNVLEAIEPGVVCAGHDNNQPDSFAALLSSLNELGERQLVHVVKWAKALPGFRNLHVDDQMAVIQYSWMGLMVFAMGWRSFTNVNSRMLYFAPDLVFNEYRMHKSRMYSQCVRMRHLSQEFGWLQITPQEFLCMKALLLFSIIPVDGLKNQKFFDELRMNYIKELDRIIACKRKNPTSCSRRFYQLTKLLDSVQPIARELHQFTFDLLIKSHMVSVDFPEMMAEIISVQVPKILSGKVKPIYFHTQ
Method in brief: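 VCaP cells in phenol red-free RPMI with 5% charcoal-stripped FBS were grown at least 3 days, then given compound as 7 half-log doses in 0.1% DMSO with 0.1 nM R1881 for 24 h. Lysates went into a sandwich AR ELISA with TMB read at 450 nm.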

Androgen Receptor [2] = target: T2, Androgen Receptor (Homo sapiens, UniProt P10275+P40337, T878A); experiment: Androgen Receptor ELISA assay (PathScan AR ELISA) in LNCaP cells: AR degradation, Dmax and DC50
T2 construct: Compounds have been evaluated in this assay in LNCaP and/or VCaP cells utilizing similar protocols; endogenous in cells; host or cells: LNCaP cells
T2 sequence (P10275 whole entry T878A): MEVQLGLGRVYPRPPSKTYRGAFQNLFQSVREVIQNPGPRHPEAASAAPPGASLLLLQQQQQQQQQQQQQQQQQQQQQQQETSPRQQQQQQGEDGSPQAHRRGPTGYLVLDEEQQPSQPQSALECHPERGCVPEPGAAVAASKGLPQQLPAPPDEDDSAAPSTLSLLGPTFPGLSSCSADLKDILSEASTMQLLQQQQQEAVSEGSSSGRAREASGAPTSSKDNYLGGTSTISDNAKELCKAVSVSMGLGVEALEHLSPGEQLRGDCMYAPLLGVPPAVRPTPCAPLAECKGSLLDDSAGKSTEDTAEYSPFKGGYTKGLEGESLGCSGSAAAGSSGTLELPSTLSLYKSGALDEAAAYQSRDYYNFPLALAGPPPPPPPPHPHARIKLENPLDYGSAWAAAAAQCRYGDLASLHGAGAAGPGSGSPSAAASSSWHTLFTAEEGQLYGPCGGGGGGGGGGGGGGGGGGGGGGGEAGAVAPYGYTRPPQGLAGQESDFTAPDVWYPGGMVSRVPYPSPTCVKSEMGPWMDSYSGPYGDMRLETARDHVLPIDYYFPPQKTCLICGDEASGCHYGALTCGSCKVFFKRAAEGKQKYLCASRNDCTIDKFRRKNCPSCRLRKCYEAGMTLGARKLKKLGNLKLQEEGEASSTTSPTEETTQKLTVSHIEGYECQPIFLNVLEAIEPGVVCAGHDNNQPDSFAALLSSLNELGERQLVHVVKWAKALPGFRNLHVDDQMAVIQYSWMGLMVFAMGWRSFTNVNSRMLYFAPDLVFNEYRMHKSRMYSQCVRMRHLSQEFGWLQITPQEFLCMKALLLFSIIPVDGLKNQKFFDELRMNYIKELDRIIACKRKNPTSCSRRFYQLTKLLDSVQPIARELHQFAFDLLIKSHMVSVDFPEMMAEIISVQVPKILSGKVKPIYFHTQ
T2 sequence (P40337 whole entry): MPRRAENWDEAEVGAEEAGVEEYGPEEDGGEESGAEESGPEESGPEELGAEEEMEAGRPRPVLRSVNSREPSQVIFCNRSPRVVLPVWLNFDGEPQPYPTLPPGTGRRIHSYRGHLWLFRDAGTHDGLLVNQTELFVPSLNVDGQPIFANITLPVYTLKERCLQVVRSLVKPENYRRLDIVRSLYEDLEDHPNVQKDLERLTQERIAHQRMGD
T2 sequence (Q15369 whole entry partner): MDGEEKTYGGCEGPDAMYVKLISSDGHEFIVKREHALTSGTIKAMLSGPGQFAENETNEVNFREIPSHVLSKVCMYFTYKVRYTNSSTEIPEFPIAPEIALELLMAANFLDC
T2 sequence (Q15370 whole entry partner): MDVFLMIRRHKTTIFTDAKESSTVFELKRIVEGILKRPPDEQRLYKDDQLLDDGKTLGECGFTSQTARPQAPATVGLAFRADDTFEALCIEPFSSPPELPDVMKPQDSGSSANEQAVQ

VCaP cells = experiment: VCaP cell proliferation assay (Cell Titer Glo), GI50; conditions: Homo sapiens; VCaP cells, 0.1 nM R1881; Table 37; read-out: GI50, Inhibition of VCaP Proliferation
Protocol: 2. VCaP Cell Proliferation Assay.
VCaP cells are plated 7,500/well 200 μL/well in VCaP assay medium [Phenol red free RPMI (Gibco Cat #11835-030); 5% Charcoal Stripped (Dextran treated) FBS (Omega Scientific, Cat #FB-04); Pen/Strep Life Technologies (Gibco Cat #: 10378-016); 0.1 nM R1881 (Sigma, Cat #R0908) is added upon the start of the assay, not during initial plating of the cells).
The assay was performed as follows: the cells are grown for a minimum of 3 days to deplete androgens; dosing of PROTACs and R1881 is performed as for AR ELISA; the baseline reading of Cell Titer Glo can be performed on day of dosing.
VCaP cells with 0.1 nM R1881 will double once in 4 days. Gently draw off 110 μL of media so as not to disturb the adherent cells; add 110 μL of CTG; incubate with slow shaking for 20 minutes; and read luminescence on a plate reader.

[3] = VCaP, highest percentage of Androgen Receptor degradation observed, VCaP cells (Table 32); read-out: VCaP Dmax (%)

Row | Dmax (Androgen Receptor [1]; [3]) [%] | Structure (SMILES) | Dmax (Androgen Receptor [1]; VCaP, read-out: VCaP Dmax (%)) [%] | GI50 (VCaP cells) [nM] | other results
1 | – | Cc1ncsc1-c1ccc(CNC(=O)[C@@H]2C[C@@H](O)CN2C(=O)[C@@H](NC(=O)COCCCCOc2ccc(-c3ccc(N4C(=S)N(c5ccc(C#N)c(C(F)(F)F)c5)C(=O)C4(C)C)cc3)cc2)C(C)(C)C)cc1 [Example 75, (2S,4R)-1-[(2S)-2-(2-{4-[4-(4-{3-[4-cyano-3-(trifluoromethyl)phenyl]-5,5-dimethyl-4-oxo-2-sulfanylideneimidazolidin-1-yl}phenyl)phenoxy]butoxy}acetamido)-3,3-dimethylbutanoyl]-4-hydroxy-N-{[4-(4-methyl-1,3-thiazol-5-yl)phenyl]methyl}pyrrolidine-2-carboxamide] | > 71 | 51 to 250 | DC50 (Androgen Receptor [1]; read-out: VCaP DC50; concentration that caused 50% Androgen Receptor degradation, VCaP cells): < 50 nM; DC50 (Androgen Receptor [2]; concentration that caused 50% Androgen Receptor degradation): < 50 nM; Dmax (Androgen Receptor [2]; highest percentage of Androgen Receptor degradation observed): > 71%
2 | – | Cc1cc(-c2ccc(N3C(=S)N(c4ccc(C#N)c(C(F)(F)F)c4)C(=O)C3(C)C)cc2)ccc1OCCCCOCC(=O)N[C@H](C(=O)N1C[C@H](O)C[C@H]1C(=O)NCc1ccc(-c2scnc2C)cc1)C(C)(C)C [Example 134, (2S,4R)-1-[(2S)-2-(2-{4-[4-(4-{3-[4-cyano-3-(trifluoromethyl)phenyl]-5,5-dimethyl-4-oxo-2-sulfanylideneimidazolidin-1-yl}phenyl)-2-methylphenoxy]butoxy}acetamido)-3,3-dimethylbutanoyl]-4-hydroxy-N-{[4-(4-methyl-1,3-thiazol-5-yl)phenyl]methyl}pyrrolidine-2-carboxamide] | > 71 | 51 to 250 | DC50 (Androgen Receptor [1]; read-out: VCaP DC50; concentration that caused 50% Androgen Receptor degradation, VCaP cells (Table 32)): < 50 nM
3 | – | Cc1ncoc1-c1ccc([C@H](C)NC(=O)[C@@H]2C[C@@H](O)CN2C(=O)[C@@H](NC(=O)COCCCCOc2ccc(-c3ccc(N4C(=S)N(c5cnc(C#N)c(C(F)(F)F)c5)C(=O)C4(C)C)cc3)cc2)C(C)(C)C)cc1 [Example 195, (2S,4R)-1-[(2S)-2-(2-{4-[4-(4-{3-[6-cyano-5-(trifluoromethyl)pyridin-3-yl]-5,5-dimethyl-4-oxo-2-sulfanylideneimidazolidin-1-yl}phenyl)phenoxy]butoxy}acetamido)-3,3-dimethylbutanoyl]-4-hydroxy-N-[(1S)-1-[4-(4-methyl-1,3-oxazol-5-yl)phenyl]ethyl]pyrrolidine-2-carboxamide] | – | 51 to 250 | DC50 (Androgen Receptor [1]; VCaP cells; concentration that caused 50% Androgen Receptor degradation; read-out: VCaP DC50): < 50 nM; Dmax (Androgen Receptor [1]; VCaP, VCaP cells; highest percentage of Androgen Receptor degradation; read-out: VCaP Dmax (%)): > 71%
4 | > 71 | Cc1ncsc1-c1ccc(CNC(=O)[C@@H]2C[C@@H](O)CN2C(=O)[C@@H](NC(=O)COCc2ccc(Oc3ccc(C(=O)N[C@H]4C(C)(C)[C@H](Oc5ccc(C#N)c(Cl)c5)C4(C)C)cc3)cc2)C(C)(C)C)cc1 [Example 183, (2S,4R)-1-[(2S)-3,3-dimethyl-2-(2-{[4-(4-{[trans-3-(3-chloro-4-cyanophenoxy)-2,2,4,4-tetramethylcyclobutyl]carbamoyl}phenoxy)phenyl]methoxy}acetamido)butanoyl]-4-hydroxy-N-{[4-(4-methyl-1,3-thiazol-5-yl)phenyl]methyl}pyrrolidine-2-carboxamide] | – | ≤ 50 | –
5 | > 71 | Cc1ncoc1-c1ccc([C@H](C)NC(=O)[C@@H]2C[C@@H](O)CN2C(=O)[C@@H](NC(=O)COCCCCCOc2ccc(C(=O)N[C@H]3C(C)(C)[C@H](Oc4ccc(C#N)c(Cl)c4)C3(C)C)cc2)C(C)(C)C)cc1 [Example 156, (2S,4R)-1-[(2S)-3,3-dimethyl-2-(2-{[5-(4-{[trans--3-(3-chloro-4-cyanophenoxy)-2,2,4,4-tetramethylcyclobutyl]carbamoyl]phen-oxy)pentyl]oxy}acetamido)butanoyl]-4-hydroxy-N-[(1S)-1-[4-(4-methyl-1,3-oxazol-5-yl)phenyl]ethyl]pyrrolidine-2-carboxamide] | – | ≤ 50 | DC50 (Androgen Receptor [1]; concentration that caused 50% Androgen Receptor degradation, VCaP cells (Table 32); read-out: VCaP DC50): < 50 nM
